Source: PubChem BioAssay (NCI)
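The concentration for 50% growth inhibition is given as GI50. TGI: total growth inhibition.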

What was measured:
Experiment in all cases: inhibition of tumour cell growth, NCI panel, 384-well format
HT29 colon = system: HT29 colon
EKVX NSCLC = system: EKVX NSCLC
UACC-257 melanoma = system: UACC-257 melanoma
SF-539 CNS = system: SF-539 CNS
SK-MEL-28 melanoma = system: SK-MEL-28 melanoma
NCI-H226 lung = system: NCI-H226 lung
MCF7 breast = system: MCF7 breast
CAKI-1 renal = system: CAKI-1 renal
OVCAR-3 ovarian = system: OVCAR-3 ovarian
SF-295 CNS = system: SF-295 CNS
MDA-MB-231 breast = system: MDA-MB-231 breast
SR leukemia = system: SR leukemia
BT-549 breast = system: BT-549 breast
SF-268 CNS = system: SF-268 CNS
IGROV1 ovarian = system: IGROV1 ovarian
HCT-15 colon = system: HCT-15 colon
SNB-19 CNS = system: SNB-19 CNS
A549 NSCLC = system: A549 NSCLC
RPMI-8226 leukemia = system: RPMI-8226 leukemia
NCI-H322M lung = system: NCI-H322M lung
T-47D breast = system: T-47D breast
ACHN renal = system: ACHN renal
TK-10 renal = system: TK-10 renal
NCI/ADR-RES ovarian = system: NCI/ADR-RES ovarian
HCC-2998 colon = system: HCC-2998 colon
NCI-H460 NSCLC = system: NCI-H460 NSCLC
HS 578T breast = system: HS 578T breast
HL-60(TB) leukemia = system: HL-60(TB) leukemia
LOX IMVI melanoma = system: LOX IMVI melanoma
NCI-H522 lung = system: NCI-H522 lung
OVCAR-8 ovarian = system: OVCAR-8 ovarian
MDA-MB-468 breast = system: MDA-MB-468 breast
SN12C renal = system: SN12C renal
OVCAR-5 ovarian = system: OVCAR-5 ovarian
A498 renal = system: A498 renal
MOLT-4 leukemia = system: MOLT-4 leukemia
SK-MEL-5 melanoma = system: SK-MEL-5 melanoma
OVCAR-4 ovarian = system: OVCAR-4 ovarian
KM12 colon = system: KM12 colon
COLO 205 colon = system: COLO 205 colon
U251 glioblastoma = system: U251 glioblastoma
HOP-62 NSCLC = system: HOP-62 NSCLC
MDA-MB-435 melanoma = system: MDA-MB-435 melanoma
SK-OV-3 ovarian = system: SK-OV-3 ovarian
HCT-116 colon = system: HCT-116 colon
HOP-92 NSCLC = system: HOP-92 NSCLC
SNB-75 CNS = system: SNB-75 CNS
PC-3 prostate = system: PC-3 prostate
DU-145 prostate = system: DU-145 prostate

Question: For FC(F)c1nc2ccccc2n1-c1nc(N2CCOCC2)nc(N2CCOCC2)n1, which GI50 (HT29 colon) is on record?
Answer: The GI50 was 454 nM.

Question: And the TGI (HT29 colon)?
Answer: The TGI was greater than 100000 nM.

Question: And the GI50 (EKVX NSCLC)?
Answer: Its GI50 is 169 nM.

Question: And the TGI (EKVX NSCLC)?
Answer: Its TGI is 1550 nM.

Question: What about the GI50 (UACC-257 melanoma) of the same compound?
Answer: The GI50 was 278 nM.

Question: What about the TGI (UACC-257 melanoma) of the same compound?
Answer: The TGI was 4260 nM.

Question: And the GI50 (SF-539 CNS)?
Answer: The GI50 was 475 nM.

Question: And the TGI (SF-539 CNS)?
Answer: Its TGI is greater than 100000 nM.

Question: What about the GI50 (SK-MEL-28 melanoma) of the same compound?
Answer: The GI50 was 402 nM.

Question: What about the TGI (SK-MEL-28 melanoma) of the same compound?
Answer: The TGI was greater than 100000 nM.

Question: And the GI50 (NCI-H226 lung)?
Answer: The GI50 was 324 nM.

Question: What about the TGI (NCI-H226 lung) of the same compound?
Answer: Its TGI is 3020 nM.

Question: What about the GI50 (MCF7 breast) of the same compound?
Answer: Its GI50 is 84.3 nM.

Question: And the TGI (MCF7 breast)?
Answer: Its TGI is greater than 100000 nM.

Question: What about the GI50 (CAKI-1 renal) of the same compound?
Answer: The GI50 was 216 nM.

Question: And the TGI (CAKI-1 renal)?
Answer: The TGI was greater than 100000 nM.

Question: And the GI50 (OVCAR-3 ovarian)?
Answer: Its GI50 is 174 nM.

Question: And the TGI (OVCAR-3 ovarian)?
Answer: Its TGI is 1080 nM.

Question: And the GI50 (SF-295 CNS)?
Answer: Its GI50 is 250 nM.

Question: And the TGI (SF-295 CNS)?
Answer: Its TGI is 2370 nM.

Question: And the GI50 (MDA-MB-231 breast)?
Answer: Its GI50 is 957 nM.

Question: What about the TGI (MDA-MB-231 breast) of the same compound?
Answer: Its TGI is greater than 100000 nM.

Question: And the GI50 (SR leukemia)?
Answer: Its GI50 is 147 nM.

Question: And the TGI (SR leukemia)?
Answer: Its TGI is 896 nM.

Question: And the GI50 (BT-549 breast)?
Answer: The GI50 was 207 nM.

Question: And the TGI (BT-549 breast)?
Answer: The TGI was 1790 nM.

Question: And the GI50 (SF-268 CNS)?
Answer: The GI50 was 1540 nM.

Question: What about the TGI (SF-268 CNS) of the same compound?
Answer: The TGI was greater than 100000 nM.

Question: What about the GI50 (IGROV1 ovarian) of the same compound?
Answer: Its GI50 is 44 nM.

Question: And the TGI (IGROV1 ovarian)?
Answer: Its TGI is 237 nM.

Question: And the GI50 (HCT-15 colon)?
Answer: The GI50 was 330 nM.

Question: And the TGI (HCT-15 colon)?
Answer: Its TGI is greater than 100000 nM.

Question: What about the GI50 (SNB-19 CNS) of the same compound?
Answer: Its GI50 is 3370 nM.

Question: And the TGI (SNB-19 CNS)?
Answer: Its TGI is greater than 100000 nM.

Question: What about the GI50 (A549 NSCLC) of the same compound?
Answer: The GI50 was 645 nM.

Question: What about the TGI (A549 NSCLC) of the same compound?
Answer: Its TGI is greater than 100000 nM.

Question: What about the GI50 (RPMI-8226 leukemia) of the same compound?
Answer: Its GI50 is 172 nM.

Question: What about the TGI (RPMI-8226 leukemia) of the same compound?
Answer: Its TGI is 608 nM.

Question: And the GI50 (NCI-H322M lung)?
Answer: The GI50 was 281 nM.

Question: What about the TGI (NCI-H322M lung) of the same compound?
Answer: The TGI was 1980 nM.

Question: And the GI50 (T-47D breast)?
Answer: Its GI50 is 171 nM.

Question: What about the TGI (T-47D breast) of the same compound?
Answer: The TGI was 5380 nM.

Question: What about the GI50 (ACHN renal) of the same compound?
Answer: The GI50 was 187 nM.

Question: And the TGI (ACHN renal)?
Answer: Its TGI is 1410 nM.

Question: And the GI50 (TK-10 renal)?
Answer: The GI50 was 224 nM.

Question: What about the TGI (TK-10 renal) of the same compound?
Answer: Its TGI is 1740 nM.

Question: What about the GI50 (NCI/ADR-RES ovarian) of the same compound?
Answer: Its GI50 is 507 nM.

Question: What about the TGI (NCI/ADR-RES ovarian) of the same compound?
Answer: The TGI was greater than 100000 nM.

Question: What about the GI50 (HCC-2998 colon) of the same compound?
Answer: Its GI50 is 23.1 nM.

Question: And the TGI (HCC-2998 colon)?
Answer: Its TGI is 2120 nM.

Question: And the GI50 (NCI-H460 NSCLC)?
Answer: The GI50 was 224 nM.

Question: What about the TGI (NCI-H460 NSCLC) of the same compound?
Answer: The TGI was 2140 nM.

Question: And the GI50 (HS 578T breast)?
Answer: The GI50 was 202 nM.

Question: And the TGI (HS 578T breast)?
Answer: The TGI was 2140 nM.

Question: And the GI50 (HL-60(TB) leukemia)?
Answer: The GI50 was 138 nM.

Question: What about the TGI (HL-60(TB) leukemia) of the same compound?
Answer: The TGI was 896 nM.

Question: And the GI50 (LOX IMVI melanoma)?
Answer: The GI50 was 598 nM.

Question: And the TGI (LOX IMVI melanoma)?
Answer: Its TGI is 4150 nM.

Question: And the GI50 (NCI-H522 lung)?
Answer: Its GI50 is 198 nM.

Question: And the TGI (NCI-H522 lung)?
Answer: The TGI was 894 nM.

Question: What about the GI50 (OVCAR-8 ovarian) of the same compound?
Answer: Its GI50 is 641 nM.

Question: What about the TGI (OVCAR-8 ovarian) of the same compound?
Answer: Its TGI is greater than 100000 nM.

Question: What about the GI50 (MDA-MB-468 breast) of the same compound?
Answer: Its GI50 is 202 nM.

Question: And the TGI (MDA-MB-468 breast)?
Answer: The TGI was 2090 nM.

Question: What about the GI50 (SN12C renal) of the same compound?
Answer: The GI50 was 19.8 nM.

Question: What about the TGI (SN12C renal) of the same compound?
Answer: The TGI was 380 nM.

Question: What about the GI50 (OVCAR-5 ovarian) of the same compound?
Answer: Its GI50 is 133 nM.

Question: What about the TGI (OVCAR-5 ovarian) of the same compound?
Answer: Its TGI is 759 nM.

Question: What about the GI50 (A498 renal) of the same compound?
Answer: The GI50 was 101 nM.

Question: What about the TGI (A498 renal) of the same compound?
Answer: The TGI was 351 nM.

Question: And the GI50 (MOLT-4 leukemia)?
Answer: The GI50 was 166 nM.

Question: What about the TGI (MOLT-4 leukemia) of the same compound?
Answer: Its TGI is 716 nM.

Question: What about the GI50 (SK-MEL-5 melanoma) of the same compound?
Answer: The GI50 was 191 nM.

Question: What about the TGI (SK-MEL-5 melanoma) of the same compound?
Answer: Its TGI is 1290 nM.

Question: And the GI50 (OVCAR-4 ovarian)?
Answer: The GI50 was 25.2 nM.

Question: And the TGI (OVCAR-4 ovarian)?
Answer: The TGI was 1530 nM.

Question: What about the GI50 (KM12 colon) of the same compound?
Answer: The GI50 was 1400 nM.

Question: And the TGI (KM12 colon)?
Answer: The TGI was greater than 100000 nM.

Question: What about the GI50 (COLO 205 colon) of the same compound?
Answer: The GI50 was 246 nM.

Question: What about the TGI (COLO 205 colon) of the same compound?
Answer: Its TGI is 1980 nM.

Question: And the GI50 (U251 glioblastoma)?
Answer: Its GI50 is 1230 nM.

Question: What about the TGI (U251 glioblastoma) of the same compound?
Answer: The TGI was greater than 100000 nM.

Question: What about the GI50 (HOP-62 NSCLC) of the same compound?
Answer: The GI50 was 420 nM.

Question: What about the TGI (HOP-62 NSCLC) of the same compound?
Answer: Its TGI is 3960 nM.

Question: What about the GI50 (MDA-MB-435 melanoma) of the same compound?
Answer: Its GI50 is 918 nM.

Question: What about the TGI (MDA-MB-435 melanoma) of the same compound?
Answer: Its TGI is 4750 nM.

Question: What about the GI50 (SK-OV-3 ovarian) of the same compound?
Answer: The GI50 was 282 nM.

Question: And the TGI (SK-OV-3 ovarian)?
Answer: Its TGI is 5000 nM.

Question: What about the GI50 (HCT-116 colon) of the same compound?
Answer: The GI50 was 1350 nM.

Question: What about the TGI (HCT-116 colon) of the same compound?
Answer: The TGI was greater than 100000 nM.

Question: What about the GI50 (HOP-92 NSCLC) of the same compound?
Answer: The GI50 was 303 nM.

Question: And the TGI (HOP-92 NSCLC)?
Answer: The TGI was greater than 100000 nM.

Question: What about the GI50 (SNB-75 CNS) of the same compound?
Answer: The GI50 was 154 nM.

Question: And the TGI (SNB-75 CNS)?
Answer: The TGI was 13900 nM.

Question: What about the GI50 (PC-3 prostate) of the same compound?
Answer: The GI50 was 56 nM.

Question: And the TGI (PC-3 prostate)?
Answer: Its TGI is 825 nM.

Question: And the GI50 (DU-145 prostate)?
Answer: The GI50 was 352 nM.

Question: And the TGI (DU-145 prostate)?
Answer: Its TGI is 2390 nM.
